Laboratory results as given in PubChem BioAssay AID463199 (Broad Institute, 2010).
The source made the active and inactive calls.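 The calls were made as follows: active = AC50, the dose giving half-maximal effect, exceeds a fixed cutoff for a compound that rescues yeast growth under heat; inactive = the rest, inconclusive results apart.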

Test system: S. cerevisiae Burl-1 ts mutant growth, BacTiter-Glo, 38.5C 24 h
Test: restored growth of temperature-sensitive Burl-1 yeast – whole organism, S. cerevisiae, Burl-1 ts mutant, luminescence, counter-screen for SUMOylation pathway inhibitor project, dose response (AID 463199)

CCOC(=O)C1CCN(C(=O)c2sccc2Cl)CC1
AC50: > 42 µM (inactive)

O=S(=O)(CCN1CCCCC1)Oc1ccc(Cl)cc1Cl
AC50: > 42 µM (inactive)

CCN1C(=S)N[C@@H](CCc2ccccc2)C(C(=O)OC)=C1C
AC50: > 42 µM (inactive)

Cc1c(C(=O)Nc2cccc(F)c2)cnn1-c1ccccc1
AC50: > 42 µM (inactive)

COc1cc(C(c2c(C)[nH][nH]c2=O)c2c(C)[nH][nH]c2=O)cc(OC)c1OC
AC50: > 42 µM (inactive)

CC1(C)CC(=O)C(CC2CCCCC2=O)C(=O)C1 (stereo unspecified)
AC50: > 42 µM (inactive)

Cc1ccc(C(=O)N/C(=C\c2cccs2)C(=O)NCCc2c[nH]c3ccccc23)cc1
AC50: > 42 µM (inactive)

O=C(CSc1ncn[nH]1)Nc1cccc(S(=O)(=O)N2CCCCCC2)c1
AC50: > 42 µM (inactive)

CCn1cc(C(=O)NCc2ccccn2)c(=O)c2cc(F)c(N3CCN(C)CC3)cc21
AC50: > 42 µM (inactive)

CC(=O)Nc1ccc(S(=O)(=O)Nc2ccc3c(c2)C(=O)OC3)cc1
AC50: > 42 µM (inactive)

CC1(C)Oc2ccc3ccc(=O)oc3c2/C(=C/Nc2ccc(O)cc2)C1=O
AC50: > 42 µM (inactive)

CCOc1ccc(NC(=O)Nc2ccc3nsnc3c2)cc1
AC50: > 42 µM (inactive)

Cc1ccccc1C(=O)/C=C1\NC(=O)CS1
AC50: > 21 µM (inactive)

CN(C)CCNC(=O)c1c(O)c2c([nH]c1=O)CCCC2
AC50: > 42 µM (inactive)

COC(=O)c1ccc(Cl)c(NC(=O)CN(c2ccc(OC)c(OC)c2)S(C)(=O)=O)c1
AC50: > 42 µM (inactive)

CC(C)CCn1c(C(C)O)nc2ccccc21 (stereo unspecified)
AC50: > 42 µM (inactive)

OC1(c2ccc(F)cc2)CC2CCC(C1)N2Cc1nnnn1C1CCCCC1 (stereo unspecified)
AC50: > 42 µM (inactive)

CC(=O)Nc1cc2nn(-c3ccccc3)nc2cc1Cl
AC50: > 42 µM (inactive)

C=CCN1c2ccccc2[C@]23C[C@@H](C(=O)OC)N=C2NC(C(=O)OC)=C(C(=O)OC)[C@H]13
AC50: > 42 µM (inactive)

COC(=O)c1ccc(N2C(=O)CC(NCc3ccccc3)C2=O)cc1 (stereo unspecified)
AC50: > 42 µM (inactive)

CCOC(=O)C1CCN(C(=O)COc2ccc(S(=O)(=O)N3CCOCC3)cc2C)CC1
AC50: > 42 µM (inactive)

COc1cc(NC(=O)c2ccccc2F)c(OC)cc1NC(=O)CN1CCCCC1
AC50: > 42 µM (inactive)

O=C(c1cc(-c2ccc(Cl)c(Cl)c2)on1)N1CCN(c2ccccc2)CC1
AC50: > 42 µM (inactive)

CS(=O)(=O)N(CC(=O)N1CCCC1)c1cccc(Cl)c1Cl
AC50: > 42 µM (inactive)

CC(C)C(NC(=O)c1ccccc1)C(=O)NCC(c1ccccc1)N(C)C (stereo unspecified)
AC50: > 42 µM (inactive)

O=C(c1cccs1)N(C(=O)c1cccs1)c1ccc(Br)cn1
AC50: > 42 µM (inactive)

Cc1ccc(-n2nnnc2C(Cl)(Cl)c2nnnn2-c2ccc(C)cc2)cc1
AC50: > 42 µM (inactive)

Cc1onc(-c2ccccc2Cl)c1C(=O)N1CCc2ccccc2C1
AC50: > 42 µM (inactive)

CC1CCCN(C(=O)Cc2ccc(F)cc2)C1 (stereo unspecified)
AC50: > 42 µM (inactive)

O=C(CCSc1nnnn1-c1ccccc1)N1CCOCC1
AC50: > 42 µM (inactive)

O=C(Cc1cccs1)N1CCCC(c2nc3c(nnn3Cc3ccc(F)cc3)c(=O)[nH]2)C1 (stereo unspecified)
AC50: > 42 µM (inactive)

Cc1ccc(O)c(C)c1
AC50: > 42 µM (inactive)

Cc1ccc2c(c1)N(CC(=O)NCCCN1CCN(C)CC1)C(=O)CO2
AC50: > 42 µM (inactive)

CC(N=C(NC#N)Nc1ccncc1)C(C)(C)C (stereo unspecified)
AC50: > 42 µM (inactive)

CCc1ccc(N2C(=O)CC(N3CCC(C(=O)OC)CC3)C2=O)cc1 (stereo unspecified)
AC50: > 42 µM (inactive)

Cc1ccccc1NC1=NCCCS1
AC50: > 42 µM (inactive)

Cc1ccc(CNC(=O)CCNS(=O)(=O)c2cccs2)cc1
AC50: > 42 µM (inactive)

c1ccc(OCCCc2nc(-c3cccnc3)no2)cc1
AC50: > 42 µM (inactive)

CCN(CC)C(=O)CSc1nnc(SCc2ccc(Cl)cc2)s1
AC50: > 42 µM (inactive)

Cc1ccc(Cn2c(NCCc3ccccc3)nc3c2c(=O)n(C)c(=O)n3C)cc1
AC50: > 42 µM (inactive)

CC1CCN(C(=O)c2[nH]cnc2C(=O)NCC(=O)OCc2ccccc2)CC1
AC50: > 42 µM (inactive)

Cc1nc(SCC(=O)O)n[nH]1
AC50: > 42 µM (inactive)

Cc1cccc(OCCC(=O)Nc2ccc(F)c(F)c2)c1
AC50: > 42 µM (inactive)

O=C(N1CCOCC1)C1(S(=O)(=O)c2ccccc2)CC=CC1
AC50: > 42 µM (inactive)

O=c1[nH][nH]c(C(F)(F)F)c1C=NCc1cccs1
AC50: > 42 µM (inactive)

O=C(CCCc1nc(-c2ccc(Cl)cc2)no1)NC1CCCCC1
AC50: > 42 µM (inactive)

CCN(C(=O)CCS(=O)(=O)c1ccc2c(c1)oc(=O)n2C)c1ccc(OC)cc1
AC50: > 42 µM (inactive)

Cc1cc(=O)oc(C)c1C(=O)Nc1ccc(Cl)cn1
AC50: > 42 µM (inactive)

COc1ccccc1CNC(=O)C1CCC(=O)N1C(C)C (stereo unspecified)
AC50: > 42 µM (inactive)

c1ccc2nc3c(nc2c1)OCC1CCCCN31 (stereo unspecified)
AC50: > 42 µM (inactive)

COc1cccc(-c2ocnc2C(=O)Nc2ccc3c(c2)CCC3)c1
AC50: > 42 µM (inactive)
